Consider 1 compound from ChEMBL document CHEMBL4152189, “Incorporation of nitric oxide donor into 1,3-dioxyxanthones leads to synergistic anticancer activity” (Eur J Med Chem, 2018).

Active and inactive are the calls of the source. No cut-off for these calls is given here.

The subject of one experiment is NIH3T3. In words: Growth inhibition of mouse NIH/3T3 cells after 24 hrs by MTT assay. The format is cell-based. As to conditions: NIH3T3, 24 h.
Experiment [1] concerns HepG2. In words: Induction of apoptosis in human HepG2 cells at 0.33 uM after 24 hrs by Annexin-V/propidium iodide staining-based flow cytometric analysis. The format is functional.
The test system of experiment [2] is HepG2. In words: Induction of apoptosis in human HepG2 cells assessed as early apoptotic cells at 0.66 uM after 24 hrs by Annexin-V/propidium iodide staining-based flow cytometric analysis. The format is functional.
In experiment [3] the test system is HepG2. In words: Induction of apoptosis in human HepG2 cells assessed as late apoptotic/necrotic cells at 0.33 uM after 24 hrs by Annexin-V/propidium iodide staining-based flow cytometric analysis. The format is functional.
Experiment [4] concerns HepG2. In words: Induction of NO generation in human HepG2 cells assessed as nitrite levels at 0.66 uM after 1 hr by Griess assay (reference value: 12.9 +/- 1.5 uM). The format is functional.
Experiment [5] has as its system HepG2. In words: Induction of NO generation in human HepG2 cells assessed as nitrite levels at 0.33 uM after 3 hrs by Griess assay (reference value: 12.8 +/- 1.5 uM). It counts as functional.
Experiment [6] concerns HepG2. In words: Induction of NO generation in human HepG2 cells assessed as nitrite levels at 0.16 uM after 6 hrs by Griess assay (reference value: 12.6 +/- 1.1 uM). The format is functional.
Experiment [7] relates to HepG2. In words: Induction of NO generation in human HepG2 cells assessed as nitrite levels at 0.33 uM after 6 hrs by Griess assay (reference value: 12.6 +/- 1.1 uM). It counts as functional.
Experiment [8] deals with HepG2. In words: Induction of NO generation in human HepG2 cells assessed as nitrite levels at 0.66 uM after 12 hrs by Griess assay (reference value: 12.7 +/- 1.8 uM). The format is functional.
Experiment [9] concerns HepG2. In words: Induction of NO generation in human HepG2 cells assessed as nitrite levels at 0.33 uM after 12 hrs by Griess assay (reference value: 12.7 +/- 1.8 uM). It counts as functional.
Experiment [10] concerns HepG2. In words: Induction of NO generation in human HepG2 cells assessed as nitrite levels at 0.16 uM after 24 hrs by Griess assay (reference value: 12.8 +/- 1.7 uM). It counts as functional.
The test system of experiment [11] is HepG2. In words: Induction of NO generation in human HepG2 cells assessed as nitrite levels at 0.66 uM after 60 hrs by Griess assay (reference value: 12.8 +/- 1.5 uM). The format is functional.
Experiment [12] deals with HepG2. In words: Growth inhibition of human HepG2 cells pre-incubated with NO scavenger carboxy-PTIO for 1 hr followed by 0.66 uM compound treatment for 24 hrs by MTT assay. The format is functional, cell-based.
The test system of experiment [13] is HepG2. In words: Growth inhibition of human HepG2 cells pre-incubated with mtADH inhibitor PCDA for 2.5 hrs followed by 0.66 uM compound treatment for 24 hrs by MTT assay. The format is functional, cell-based.
Experiment [14] has as its system HepG2. In words: Induction of apoptosis in human HepG2 cells assessed as inhibition of p53-MDM2 interaction by measuring upregulation of p53 expression after 24 hrs by Western blot analysis. The format is functional, cell-based.
Experiment [15] concerns HepG2. In words: Induction of apoptosis in human HepG2 cells assessed as inhibition of p53-MDM2 interaction by measuring downregulation of MDM2 expression at 1 uM after 24 hrs by Western blot analysis. The format is functional, cell-based.

Regarding `COc1cccc2oc3cc(OCCCCCO[N+](=O)[O-])cc(O)c3c(=O)c12`, the IC50 in the experiment with NIH3T3 was determined as 378 µM. The Activity stood at 76.6% in the experiment with HepG2 [1]; 45.1% in the experiment on HepG2 [2]; 11.8% in the experiment on HepG2 [3]; 21.6 µM in the experiment on HepG2 [4]; 23.2 µM in the experiment on HepG2 [5]; 22.9 µM with HepG2 [6]. For the same compound, the Activity is 29.6 µM in the experiment with HepG2 [7]; 36 µM with HepG2 [8]; 31.5 µM in the experiment with HepG2 [9]; 26.2 µM in the experiment with HepG2 [10]; 20.2 µM with HepG2 [11]; “Dose-dependent effect” with HepG2 [14]. The “growth inhibition (GI)” value in the experiment with HepG2 [12] and in the experiment on HepG2 [13] was “inactive” in each case. Also, the result with HepG2 [15] was Active.
